Test results from US7563774B2, “Combination of FBPase inhibitors and antidiabetic agents useful for the treatment of diabetes” (Metabasis Therapeutics, Inc., priority 2000, dated 2009).

Tests used:
C57BL/KsJ db/db mice = assay: Acute combination treatment of a biguanide and an FBPase inhibitor in db/db mice (Example DD); format: in vivo, mouse
Procedure: Male C57BL/KsJ db/db mice were purchased at 5 weeks of age from Clea Japan, Inc. (Tokyo, Japan). The mice were maintained under standard vivarium conditions (24-26° C., 12-hour light cycle, 12-hour dark cycle) and received standard chow and water ad libitum. […] The treatment groups were control, compound J , metformin, and the combination of compound J and metformin. […] Food was removed after treatment. Blood glucose levels in tail vein samples were measured by means of a Glucoloader-F, an automatic glucose analyzer, (A&T Co., Ltd., Tokyo, Japan).

[1] = test system: streptozotocin diabetic Sprague Dawley rats; assay: Acute combination treatment of an FBPase inhibitor and an amylin agonist in streptozotocin diabetic rats (Example HH); format: in vivo, rat; conditions: pramlintide 10 micrograms i.v., Compound J 300 mg/kg p.o.
Procedure: Animals are then gavaged with 1 mL 50% glucose, and allowed ad libitum access to food. Blood glucose is collected from the tail vein at 0, 30, 60, 120, 180, and 240 minutes following glucose administration.

[2] = test system: streptozotocin-induced diabetic rat; assay: Chronic combination treatment of a fatty acid oxidation inhibitor and an FBPase inhibitor in the streptozotocin-induced diabetic rat (Example JJ); format: in vivo; conditions: etomoxir 3-300 mg/kg s.c., Compound J 0.2% w/w food admixture, 2-6 weeks
Procedure: Male Sprague-Dawley rats (Charles Rivers Laboratories) weighing approximately 120 g at the beginning of the study are housed under standard vivarium conditions and fed standard chow (Purina 5001). Rats are rendered diabetic by injection of 55 mg/kg body weight of streptozotocin (STZ) in citrate buffer, pH 4.7. […] Drug treatment is continued for 2-6 weeks. Blood glucose levels are monitored at regular intervals during the treatment period. At the end of the study, rats are anesthetized and instrumented with jugular vein and carotid artery catheters. Hepatic glucose production is measured using a primed constant infusion of (^3H)-6-glucose. Blood samples are taken after two hours, and the specific activity of glucose measured by […]. Hepatic glucose production rater are calculated by standard methods.

With `CCOC(=O)[C@H](C)NP(=O)(N[C@@H](C)C(=O)OCC)c1ccc(-c2nc(N)sc2CC(C)C)o1` [Compound J, 2-Amino-5-isobutyl-4-{2-[5-(N,N′-bis((S)-1-ethoxycarbonyl)ethyl)phosphonamido]furanyl}thiazole] the “Plasma Glucose, % of pretreatment value” (C57BL/KsJ db/db mice; after 2 hour) was “(70.2 +/− 14.6) %”, the “Plasma Glucose” value (C57BL/KsJ db/db mice; after 2 hour, Compound J and/or metformin 150 mg/kg p.o.) was 448.6 ± 42.5 mg/dL and the “Plasma Glucose” value (C57BL/KsJ db/db mice; after 4 hour) was 376.7 ± 39.9 mg/dL. For the same molecule, the “Plasma Glucose, % of pretreatment value” (C57BL/KsJ db/db mice; after 4 hour) was “(72.4 +/− 5.0) %”, the “Plasma Glucose” value (C57BL/KsJ db/db mice; after 6 hour) was 357.7 ± 40.4 mg/dL and the “Plasma Glucose, % of pretreatment value” (C57BL/KsJ db/db mice; after 6 hour) was “(68.7 +/− 5.5) %”. The “Plasma Glucose” value (C57BL/KsJ db/db mice; after 8 hour) was 386.5 ± 43.1 mg/dL, the “Plasma Glucose, % of pretreatment value” (C57BL/KsJ db/db mice; after 8 hour) was “(74.2 +/− 5.8) %” and the “Plasma Glucose” value (C57BL/KsJ db/db mice; before (0 hour)) was 514.3 ± 23.0 mg/dL. The “Plasma Glucose, % of pretreatment value” (C57BL/KsJ db/db mice; before (0 hour)) was “(100.0 +/− 0.0) %”, the blood glucose lowering (C57BL/KsJ db/db mice; db/db mice, acute) was “lowered blood glucose significantly relative to controls” and the postprandial glucose excursion [1] was “attenuated the postprandial glucose excursion”. The Blood Glucose [2] was “lowered significantly”.
